This is an account of results in patent publication US10441663B2, “Methods for treating cancer” (Bicycle Therapeutics Limited, priority 2016, dated 2019).

In one assay the test system is LU-01-0486 PDX model. It counts as in vivo, Mus Musculus. As to conditions: Docetaxel group. The protocol: The objective of this study was to evaluate the in vivo anti-tumor efficacy of BT1718 in the treatment of MT1-MMP low-expressing LU-01-0486 PDX model in female Balb/C nude mice
Each mouse was inoculated subcutaneously at the right flank with LU-01-0486 of tumor fragment (30 mm^3) for tumor development. The treatments was started when the average tumor volume reaches 164 mm^3.
All the procedures related to animal handling, care and the treatment in the study were performed following the guidance of the Association for Assessment and Accreditation of Laboratory Animal Care (AAALAC). At the time of routine monitoring, the animals were daily checked for any effects of tumor growth and treatments on normal behavior such as mobility, food and water consumption (by looking only), body weight gain/loss (body weights were measured twice weekly), eye/hair matting and any other abnormal effect as stated in the protocol. Death and observed clinical signs were recorded on the basis of the numbers of animals within each subset.
The major endpoint was to see if the tumor growth could be delayed or mice could be cured. Tumor size was measured two times weekly in two dimensions using a caliper, and the volume was expressed in mm^3 using the formula: V=0.5 a×b^2 where a and b are the long and short diameters of the tumor, respectively. The tumor size was then used for calculations of T/C value. […]
TGI was calculated for each group using the formula: TGI (%)=[1−(Ti−T0)/(Vi−V0)]×100; Ti is the average tumor volume of a treatment group on a given day, T0 is the average tumor volume of the treatment group on the day of treatment start, Vi is the average tumor volume of the vehicle control group on the same day with Ti, and V0 is the average tumor volume of the vehicle group on the day of treatment start. […]
A one-way ANOVA was performed to compare tumor volume among groups, and when a significant F-statistics (a ratio of treatment variance to the error variance) was obtained, comparisons between groups were carried out with Games-Howell test. All data were analyzed using Prism. […]

Another assay addresses MMP15 (Homo sapiens, UniProt P51511). Nature of the assay: Binding to related MMP family member.
The next assay concerns the target T1, Pro-MMP1 (Homo sapiens, UniProt P03956).
T1 construct: MMP1, Pro-MMP1, MMP2
The assay is described as follows: Binding to related MMP family member.

Assay [1] concerns the target T2, MMP2 (Homo sapiens, UniProt P08253). Nature of the assay: Binding to related MMP family member. The protocol: (§1) A bicyclic constrained peptide binder (Bicycle) was identified that binds to the hemopexin domain of MT1 with an apparent Kd of approximately 2 nM. […] Bicycle drug conjugates (BDCs) with a variety of linkers and cytotoxic payloads were prepared which retained binding to MT1.

The target in the next assay is MMP24 (Homo sapiens, UniProt Q9Y5R2). The assay is described as follows: Binding to related MMP family member. The protocol:
as §1

Assay [2] deals with T3, MMP1 (Homo sapiens, UniProt P03956). The assay is described as follows: Binding to related MMP family member. On the procedure: as §1
T3 sequence (P03956 100-469, species assumed): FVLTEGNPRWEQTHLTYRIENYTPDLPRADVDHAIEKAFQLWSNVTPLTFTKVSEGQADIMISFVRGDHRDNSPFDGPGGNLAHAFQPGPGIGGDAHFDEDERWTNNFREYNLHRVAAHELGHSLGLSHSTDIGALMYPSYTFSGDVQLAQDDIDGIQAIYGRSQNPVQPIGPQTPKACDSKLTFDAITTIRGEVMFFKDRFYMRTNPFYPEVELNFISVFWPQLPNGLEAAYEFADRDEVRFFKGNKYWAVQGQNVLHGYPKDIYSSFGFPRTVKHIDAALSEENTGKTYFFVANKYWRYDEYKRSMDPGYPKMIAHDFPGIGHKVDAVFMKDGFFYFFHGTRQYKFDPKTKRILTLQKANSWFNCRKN
The subject of a further assay is catalytic domain (MT1). The assay is described as follows: Bicycle peptide binding to catalytic domain. The protocol: as §1
The subject of assay [3] is cell migration or invasion. The assay is described as follows: Effect on cell migration or invasion. It counts as cell-based. As to conditions: in vitro. On the procedure:
as §1

For another assay, the target named is MT1 (Homo sapiens, UniProt P50281). Nature of the assay: Effect on catalytic activity of the protease in vitro. The format is biochemical. On the procedure: as §1
For assay [4], the target named is T2, MMP2. The assay is described as follows: Effect on related MMP catalytic activity. As to conditions: in vitro. It counts as biochemical. The protocol:
as §1

In assay [5] the target is T3, MMP1. The assay is described as follows: Effect on related MMP catalytic activity. The format is biochemical. To be noted: in vitro. On the procedure: as §1
The target in another assay is MMP9 (Homo sapiens, UniProt P14780). The assay is described as follows: Effect on related MMP catalytic activity. It counts as biochemical. As to conditions: in vitro. The protocol:
as §1

Another assay deals with MMP16 (Homo sapiens, UniProt P51512). The assay is described as follows: Binding to related MMP family member.
Sequence of MMP16 (P51512 120-607, species assumed): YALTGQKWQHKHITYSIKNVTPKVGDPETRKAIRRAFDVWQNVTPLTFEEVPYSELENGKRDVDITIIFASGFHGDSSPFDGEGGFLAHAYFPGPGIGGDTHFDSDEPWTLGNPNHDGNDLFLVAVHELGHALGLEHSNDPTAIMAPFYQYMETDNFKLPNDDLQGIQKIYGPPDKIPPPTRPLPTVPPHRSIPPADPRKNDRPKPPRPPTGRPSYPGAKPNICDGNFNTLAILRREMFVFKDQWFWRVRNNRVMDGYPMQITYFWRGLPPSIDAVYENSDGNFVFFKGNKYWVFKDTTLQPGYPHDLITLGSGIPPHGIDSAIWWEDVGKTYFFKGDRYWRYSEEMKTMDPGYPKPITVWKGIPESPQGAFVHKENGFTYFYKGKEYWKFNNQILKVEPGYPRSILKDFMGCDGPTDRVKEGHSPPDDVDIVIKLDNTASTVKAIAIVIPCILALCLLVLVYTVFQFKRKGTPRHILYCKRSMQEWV

Each structure is given as a SMILES string. *1 amine or outer side, *2 acyl side, *3 side chain or, on linkers, in order; H or OH if unused. Where a SMILES comes first, the peptide text is derived from it. Bridges are numbered along the chain shown (N, C = ends). [ ]: non-standard residue; d: D form. 1Nal = N[C@@H](Cc1cccc2ccccc12)C(=O)O; TBMB = c1c(C[*:1])cc(C[*:3])cc1C[*:2]; Tle = CC(C)(C)[C@H](N)C(=O)O; βAla = NCCC(=O)O; Sar = CNCC(=O)O

T2 sequence (P08253 110-660, species assumed): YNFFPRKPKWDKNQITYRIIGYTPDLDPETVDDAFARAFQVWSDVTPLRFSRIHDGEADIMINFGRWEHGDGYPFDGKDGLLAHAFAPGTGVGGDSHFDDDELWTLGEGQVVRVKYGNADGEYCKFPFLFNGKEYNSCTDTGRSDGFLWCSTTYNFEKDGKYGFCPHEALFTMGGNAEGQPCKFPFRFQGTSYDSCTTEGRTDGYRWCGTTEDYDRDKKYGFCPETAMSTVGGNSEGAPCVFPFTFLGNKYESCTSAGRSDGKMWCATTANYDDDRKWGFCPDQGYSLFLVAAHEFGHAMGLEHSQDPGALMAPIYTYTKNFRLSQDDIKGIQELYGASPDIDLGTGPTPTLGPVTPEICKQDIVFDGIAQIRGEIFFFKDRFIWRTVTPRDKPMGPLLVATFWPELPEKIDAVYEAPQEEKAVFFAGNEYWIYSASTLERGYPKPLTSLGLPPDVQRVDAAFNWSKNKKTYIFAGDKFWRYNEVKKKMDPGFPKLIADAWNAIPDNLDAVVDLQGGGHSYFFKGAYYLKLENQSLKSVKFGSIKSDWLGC
Sequence of MMP9 (P14780 94-707, species assumed): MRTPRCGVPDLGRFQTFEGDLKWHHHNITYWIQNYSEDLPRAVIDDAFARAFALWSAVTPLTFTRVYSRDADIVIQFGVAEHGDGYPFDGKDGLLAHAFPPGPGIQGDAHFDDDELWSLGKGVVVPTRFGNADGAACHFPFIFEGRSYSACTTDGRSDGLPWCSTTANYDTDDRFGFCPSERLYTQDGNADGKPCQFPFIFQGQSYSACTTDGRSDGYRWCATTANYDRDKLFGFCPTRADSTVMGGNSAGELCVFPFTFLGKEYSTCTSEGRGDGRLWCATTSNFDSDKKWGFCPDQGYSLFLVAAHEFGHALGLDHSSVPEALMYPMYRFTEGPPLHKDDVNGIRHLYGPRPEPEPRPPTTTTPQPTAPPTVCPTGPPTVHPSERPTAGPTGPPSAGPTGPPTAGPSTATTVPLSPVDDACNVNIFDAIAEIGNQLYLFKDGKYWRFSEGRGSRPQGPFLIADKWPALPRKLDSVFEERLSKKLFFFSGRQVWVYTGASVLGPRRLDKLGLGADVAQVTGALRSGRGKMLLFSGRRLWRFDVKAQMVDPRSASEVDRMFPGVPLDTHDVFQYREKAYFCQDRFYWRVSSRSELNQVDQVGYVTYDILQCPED
Sequence of MMP24 (Q9Y5R2 156-645, species assumed): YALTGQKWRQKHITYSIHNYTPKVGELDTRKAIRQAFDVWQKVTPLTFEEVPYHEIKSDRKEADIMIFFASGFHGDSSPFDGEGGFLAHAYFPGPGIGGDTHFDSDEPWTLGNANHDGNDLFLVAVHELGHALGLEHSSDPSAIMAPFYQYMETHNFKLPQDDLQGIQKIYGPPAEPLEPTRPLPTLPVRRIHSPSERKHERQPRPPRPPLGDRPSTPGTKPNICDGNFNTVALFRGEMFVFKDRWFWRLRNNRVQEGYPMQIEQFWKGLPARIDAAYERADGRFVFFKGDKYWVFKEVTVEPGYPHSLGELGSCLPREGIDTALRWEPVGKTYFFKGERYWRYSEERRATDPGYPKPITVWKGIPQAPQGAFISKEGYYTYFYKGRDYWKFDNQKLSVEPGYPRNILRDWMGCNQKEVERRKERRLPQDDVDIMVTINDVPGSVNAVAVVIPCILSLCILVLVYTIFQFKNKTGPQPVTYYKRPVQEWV
T1 sequence (P03956 20-469 limits assumed): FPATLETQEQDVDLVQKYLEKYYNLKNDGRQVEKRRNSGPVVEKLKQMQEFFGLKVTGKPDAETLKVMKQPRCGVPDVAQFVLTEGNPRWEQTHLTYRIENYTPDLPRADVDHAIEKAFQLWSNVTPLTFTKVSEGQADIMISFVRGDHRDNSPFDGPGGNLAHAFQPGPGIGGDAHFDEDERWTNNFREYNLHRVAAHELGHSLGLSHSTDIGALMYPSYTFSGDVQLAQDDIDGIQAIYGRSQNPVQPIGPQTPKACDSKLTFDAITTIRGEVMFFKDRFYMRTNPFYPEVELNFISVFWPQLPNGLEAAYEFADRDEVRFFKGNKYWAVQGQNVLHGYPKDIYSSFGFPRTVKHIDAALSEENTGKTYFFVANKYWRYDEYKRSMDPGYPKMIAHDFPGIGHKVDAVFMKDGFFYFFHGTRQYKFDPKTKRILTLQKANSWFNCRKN
Sequence of MMP15 (P51511 132-669, species assumed): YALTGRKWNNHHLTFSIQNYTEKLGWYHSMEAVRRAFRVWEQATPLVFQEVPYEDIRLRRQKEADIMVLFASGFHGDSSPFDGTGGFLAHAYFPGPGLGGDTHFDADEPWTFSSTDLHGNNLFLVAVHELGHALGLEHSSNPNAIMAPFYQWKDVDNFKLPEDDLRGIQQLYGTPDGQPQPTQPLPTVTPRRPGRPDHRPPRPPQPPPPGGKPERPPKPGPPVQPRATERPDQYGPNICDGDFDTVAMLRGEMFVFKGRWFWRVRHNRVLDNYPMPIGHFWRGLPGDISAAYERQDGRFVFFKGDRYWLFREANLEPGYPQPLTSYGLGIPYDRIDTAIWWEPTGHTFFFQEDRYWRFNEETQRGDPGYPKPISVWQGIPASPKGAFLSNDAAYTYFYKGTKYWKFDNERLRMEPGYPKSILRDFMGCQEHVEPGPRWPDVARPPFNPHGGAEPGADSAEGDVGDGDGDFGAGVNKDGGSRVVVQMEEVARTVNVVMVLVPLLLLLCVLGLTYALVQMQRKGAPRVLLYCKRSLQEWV

Take `CC(=O)O[C@@]12CO[C@@H]1C[C@H](O)[C@@]1(C)C(=O)[C@H](O)C3=C(C)[C@@H](OC(=O)[C@H](O)[C@@H](NC(=O)OC(C)(C)C)c4ccccc4)C[C@@](O)([C@@H](OC(=O)c4ccccc4)[C@H]21)C3(C)C` [Docetaxel, reference compound]: in the assay on LU-01-0486 PDX model, the tumor growth entry was “significant inhibition of tumor growth”.
Consider `C[C@H](NC(=O)CN(C)C(=O)CN(C)C(=O)CN(C)C(=O)CN(C)C(=O)CN(C)C(=O)CN(C)C(=O)CN(C)C(=O)CN(C)C(=O)CN(C)C(=O)CN(C)C(=O)CCN)C(=O)N[C@H]1CSCc2cc3cc(c2)CSC[C@H](NC(=O)[C@@H](C)NC(=O)[C@H](Cc2cccc4ccccc24)NC(=O)[C@H](CCC(=O)O)NC(=O)[C@H](CC(N)=O)NC(=O)[C@@H](C)NC1=O)C(=O)N[C@@H](CCC(=O)O)C(=O)N[C@@H](CC(=O)O)C(=O)N[C@@H](Cc1ccccc1)C(=O)N[C@@H](Cc1ccc(O)cc1)C(=O)N[C@@H](CC(=O)O)C(=O)N[C@@H](C(C)(C)C)C(=O)N[C@H](C(N)=O)CSC3` [N241] (H-[βAla][Sar][Sar][Sar][Sar][Sar][Sar][Sar][Sar][Sar][Sar]AC[dA]NE[1Nal][dA]CEDFYD[Tle]C-NH2; linker 13-19-26 via TBMB; N-terminus and C-terminus assumed), for which the binding result at MMP15, at Pro-MMP1, on MMP2 [1], on MMP24, on MMP1 [2] and in the assay on catalytic domain (MT1) was “no binding” throughout. The binding entry at MMP16 was “no binding”. Further, the “impact on cell migration or invasion” value in [3] is on record as “no direct impact”. Further, the “impact on catalytic activity” value on MT1, on MMP2 [4], on MMP1 [5] and on MMP9 was “no direct impact” each time.
